Laboratory results as given in ChEMBL document CHEMBL4184095, “Identification of novel small-molecule inhibitors of Zika virus infection” (Bioorg Med Chem Lett, 2018).

How the values were obtained:
[1] = Cytotoxicity against human A549 cells assessed as cell viability at 10 uM by MTT assay relative to control; type: cell-based; conditions: read-out: Activity
Zika virus [2] = test: Antiviral activity against Zika virus infected in human A549 cells preincubated for 5 hrs followed by compound wash measured after 48 hrs by viral plague-forming assay; type: functional, organism-based
[3] = Cytotoxicity against human A549 cells assessed as cell viability at 100 uM by MTT assay relative to control; type: cell-based; conditions: read-out: Activity
[4] = Cytotoxicity against human A549 cells assessed as cell viability at 0.1 uM by MTT assay relative to control; type: cell-based; conditions: read-out: Activity
[5] = Cytotoxicity against human A549 cells assessed as cell viability at 1 uM by MTT assay relative to control; type: cell-based; conditions: read-out: Activity
Zika virus [6] = test: Antiviral activity against Zika virus infected in human A549 cells assessed as virus titer preincubated for 5 hrs followed by compound wash measured after 48 hrs by viral plague-forming assay; type: functional

SMILES	viability at 10 µM [1] [%]	IC50 (Zika virus [2]) [nM]	viability at 100 µM [3] [%]	viability at 0.1 µM [4] [%]	viability at 1 µM [5] [%]	Activity (Zika virus [6]) [log10PFU/ml]
COc1ccc(CCCn2ncc3c2nc(N)n2nc(-c4ccco4)nc32)cc1	77.2	3060	41.6	94.7	106	
C=CCSc1nsc(NC(=O)Nc2cccc(C(C)=O)c2)n1	96.7	160	21.6	104	105	7
O=C(Nc1nc(SCCOc2ccccc2)ns1)Nc1ccc(F)cc1F	95.5	4940	27.3	96.2	102	
O[C@H]1CC[C@H](Nc2nc(-c3ccccc3)nc3[nH]ccc23)CC1	98.5	58.6	41.7	106	111	
C#CCSc1nsc(NC(=O)Nc2ccccc2Cl)n1	89.9	1680	21.4	98.1	96.2	
C=CCSc1nsc(NC(=O)Nc2ccc(Cl)cc2)n1	51.2	0.189	15.1	100	98.1	
COc1ccc(C2CNC(=O)NC2)cc1O[C@@H]1C[C@H]2CC[C@H]1C2	94.3	182	43.3	96.6	104	
C=CCSc1nsc(NC(=O)Nc2ccc(F)cc2F)n1	90.2	4480	31.3	100	100	
C#CCSc1nsc(NC(=O)Nc2ccc(Cl)c(C(F)(F)F)c2)n1	74.1	26.9	18	99.8	97.8	
C=CCSc1nsc(NC(=O)Nc2ccc(Cl)cc2C(F)(F)F)n1	95.8	0.318	43.1	102	104	
O=S(=O)(c1c(F)c(F)c(F)c(F)c1F)N1CCN(c2ccccc2)CC1	77	0.87	35	93.1	103	7
CCCn1c(=O)[nH]c2nc(-c3ccc(S(=O)(=O)N4CCN(c5ccc(Cl)cc5)CC4)cc3)[nH]c2c1=O	86.5	43.8	35.8	97.7	97.4	
COc1ccc([C@@H]2CNC(=O)C2)cc1OC1CCCC1 [(-)-ROLIPRAM]	92.5	77.6	39.1	95.7	97.1	
CCCOc1cc([C@]2(C)CNC(=O)O2)ccc1OC [DAXALIPRAM]	95.3	769	41.8	101	106	
CN1CCCC1=O [METHYLPYRROLIDONE]	99.4		39.3	98.6	102	
COCCOc1ccc(N2CCN(CCn3ncc4c3nc(N)n3nc(-c5ccco5)nc43)CC2)cc1 [PRELADENANT]	57	136	27.9	109	104	7
COc1ccc(C2CNC(=O)C2)cc1OC1CCCC1 (stereo not drawn) [ROLIPRAM]	101	44.6	43.4	107	114	7
COc1ccc([C@H]2CNC(=O)C2)cc1OC1CCCC1 [S-ROLIPRAM]	97	25.8	40.9	96.5	105	
Nc1nc(NCCc2ccc(O)cc2)nc2nc(-c3ccco3)nn12 [ZM-241385]	77.8	1070	32.6	107	110	
